The values below are quoted from earlier work in US12629325B2, “Increased solubilization of Bemotrizinol” (DSM IP ASSETS B.V., priority 2020, dated 2026).

Read-outs that look alike come from different tables or passages of the source.

For this data set the following is noted: for Solubility in esters: particularly C12-15 alkyl benzoate.
[1] abbreviates: listed as UV-filter of the formula (I).

`CCCCC(CC)COc1ccc(-c2nc(-c3ccc(OC)cc3)nc(-c3ccc(OCC(CC)CCCC)cc3O)n2)c(O)c1` (stereo not drawn) [Bemotrizinol, 2,4-Bis-{[4-(2-ethyl-hexyloxy)-2-hydroxy]-phenyl}-6-(4-methoxyphenyl)-1,3,5-triazine]: the Solubility in alkanes entry is listed as “very low”, the Solubility in esters entry was “moderate solubility” and the Solubility in water result was “very low”. Further, under setting [1], the Solubility in alkanes result is listed as “insoluble”, the Solubility in esters entry is on record as “very soluble” and the Solubility in water result was “insoluble”.
